PMC12527922, “Cocaine chemogenetics blunts drug-seeking by synthetic physiology” (Nature, 2025)
Values joined by “and” are separate entries in the source; they are usually repeats but may differ in a detail not shown here. Equal values may be shown once. Read-outs that look alike come from different tables or passages of the source.

Legend:
[1] = target: T1, coca-GlyR (α7(L141G,G175K,Y217F)–GlyR) (Homo sapiens, UniProt P23415+P36544, G175K/L141G/Y217F); experiment: Membrane potential assay, coca-GlyR in HEK293; format: cell-based
T1 construct: expressed in transfected cells; host or cells: HEK293 (ATCC CRL-1573), pcDNA3.1

[2] = target: T2, unmodified α7–5HT3 (UniProt P23979+P36544, M226I/T225I); experiment: Membrane potential assay, unmodified α7–5HT3; format: cell-based, human α7 nAChR LBD, mouse 5HT3 IPD
T2 construct: expressed in transfected cells; host or cells: HEK293 (ATCC CRL-1573), pcDNA3.1

[3] = target: T3, unmodified α7–GlyR (Homo sapiens, UniProt P23415+P36544); experiment: Membrane potential assay, unmodified α7–GlyR; format: cell-based; conditions: sheet 1d
T3 construct: expressed in transfected cells; host or cells: HEK293 (ATCC CRL-1573), pcDNA3.1

[4] = tested on: α7–5HT3 mutant chimeric channels; experiment: cell-based; format: cell-based, human α7 nAChR LBD, mouse 5HT3 IPD; conditions: for EC50: sheet 1e
[5] = tested on: coca-5HT3; experiment: Whole-cell voltage-clamp in HEK293 cells, coca-5HT3; format: cell-based, human α7 nAChR LBD, mouse 5HT3 IPD
Procedure: Channel mutants and agonists were further characterized in whole-cell voltage-clamp experiments performed on HEK293 cells. At passage 44–48, cells were plated at low density (1 × 10^3 per cm^2) on poly-D-lysine-coated glass coverslips, then transfected in 10 cm^2 wells using the Fugene 6 transfection reagent (Roche) with DNA plasmids containing both an ion channel cDNA (pcDNA3.1, 2 µg per well) and cDNA for GFP (pCMV, 0.1 μg per well), followed by replacement of the medium after 3 h. Recordings were made 24–72 h after transfection.
Electrophysiological recordings were performed in whole-cell voltage-clamp mode, on an inverted fluorescence microscope (Olympus IX-51) using pClamp software and a […] amplifier (Molecular Devices). Electrophysiological data was filtered at 4 kHz, digitized at 10 kHz using a Digidata 1400 interface (Molecular Devices), recorded on a PC (Dell) and analysed using custom MATLAB software (MathWorks). Solutions were delivered from a gravity fed perfusion system through a capillary tube placed approximately […] from the recorded cell using an eight-way manifold pinch valve system (Nanion), which was controlled from the acquisition software. This allowed for up to seven concentrations of agonist to be tested. […]

[6] = screen of chimeric α7–5HT3 and α7–GlyR single LBD mutants (Fig. 1d)

T2 sequence (P36544+P23979 fused P36544:T225I/P36544:M226I): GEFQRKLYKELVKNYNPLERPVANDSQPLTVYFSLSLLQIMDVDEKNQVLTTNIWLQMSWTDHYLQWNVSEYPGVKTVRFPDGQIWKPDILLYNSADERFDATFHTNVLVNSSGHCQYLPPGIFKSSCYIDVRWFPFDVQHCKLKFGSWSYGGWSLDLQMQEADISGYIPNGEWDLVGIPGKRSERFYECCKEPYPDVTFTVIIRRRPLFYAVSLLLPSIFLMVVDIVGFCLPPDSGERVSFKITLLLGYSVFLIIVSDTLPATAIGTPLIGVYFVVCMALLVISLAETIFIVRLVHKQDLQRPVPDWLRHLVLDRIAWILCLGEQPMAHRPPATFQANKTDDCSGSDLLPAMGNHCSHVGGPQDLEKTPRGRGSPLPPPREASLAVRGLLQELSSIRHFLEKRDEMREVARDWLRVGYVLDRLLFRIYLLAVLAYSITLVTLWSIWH
T3 sequence (P36544+P23415 fused): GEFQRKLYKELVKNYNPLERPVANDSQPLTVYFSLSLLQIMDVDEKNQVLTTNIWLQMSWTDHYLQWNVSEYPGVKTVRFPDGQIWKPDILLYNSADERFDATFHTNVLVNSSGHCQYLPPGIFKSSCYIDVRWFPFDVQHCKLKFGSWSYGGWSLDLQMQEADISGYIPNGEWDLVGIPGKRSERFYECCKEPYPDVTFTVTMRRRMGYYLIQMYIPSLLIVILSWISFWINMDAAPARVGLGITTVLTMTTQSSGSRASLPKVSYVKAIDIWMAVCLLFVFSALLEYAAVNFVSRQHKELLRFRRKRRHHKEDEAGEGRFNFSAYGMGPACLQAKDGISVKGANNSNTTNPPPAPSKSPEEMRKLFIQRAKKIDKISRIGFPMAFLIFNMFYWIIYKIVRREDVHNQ
T1 sequence (P36544+P23415 fused P36544:L141G/P36544:G175K/P36544:Y217F): as the sequence (P36544+P23415 fused) above, with L119G, G153K, Y195F counted along it

Question: For COC(=O)[C@H]1[C@@H](OC(=O)c2ccccc2)C[C@@H]2CC[C@H]1N2C [cocaine], which EC50 [1] is on record?
Answer: 1200 ± 100 nM

Question: And the EC50 at a75HT3 unmodified, AVG ([2]; sheet 1e, AVG)?
Answer: 30000 nM

Question: What about the EC50 at a75HT3 unmodified ([2]; sheet 1e, single determinations) of the same compound?
Answer: 30000 nM

Question: What about the EC50 at α7-5HT3, Avg ([2]; sheet 1d, Avg) of the same compound?
Answer: 30000 nM

Question: And the EC50 at α7-5HT3 ([2]; sheet 1d, single determinations)?
Answer: 30000 nM

Question: What about the EC50 at α7-GlyR, Avg ([3]; Avg) of the same compound?
Answer: 30000 nM

Question: And the EC50 at α7-GlyR ([3]; single determinations)?
Answer: 30000 nM

Question: What about the “agonism at Leu141Gly or Leu141Ala mutant channels” value [4, 6] of the same compound?
Answer: marked induction of cocaine agonism

Question: What about the “agonist activity at Trp77Phe and Leu131Asn mutant channels” value [4, 6] of the same compound?
Answer: some cocaine agonist activity

Question: And the EC50 ([4]; AVG, read-out: EC50 at a75HT3 L141G G175K Y115F, AVG)?
Answer: 4780 nM

Question: What about the EC50 ([4]; AVG, read-out: EC50 at a75HT3 L141G G175K Y210F, AVG) of the same compound?
Answer: 2270 nM

Question: And the EC50 ([4]; AVG, read-out: EC50 at a75HT3 L141G G175K Y217F, AVG)?
Answer: 715 nM

Question: What about the EC50 ([4]; AVG, read-out: EC50 at a75HT3 L141G G175K, AVG) of the same compound?
Answer: 315 nM

Question: And the EC50 ([4]; AVG, read-out: EC50 at a75HT3 L141G, AVG)?
Answer: 2350 nM

Question: What about the EC50 ([4]; single determinations, read-out: EC50 at a75HT3 L141G) of the same compound?
Answer: 2350 nM

Question: What about the EC50 ([4]; single determinations, read-out: EC50 at a75HT3 L141G G175K) of the same compound?
Answer: 390 nM and 240 nM

Question: What about the EC50 ([4]; single determinations, read-out: EC50 at a75HT3 L141G G175K Y217F) of the same compound?
Answer: 800 nM and 630 nM

Question: What about the “currents from coca-5HT3” value [5] of the same compound?
Answer: robust cocaine-activated currents
